Measured values reported in US10227357B2, “Compounds and methods for kinase modulation, and indications therefor” (Plexxikon Inc., priority 2012, dated 2019).

Key:
c-kit kinase = target: T1, c-kit kinase (Homo sapiens, UniProt P10721); test: c-Kit biochemical assay, AlphaScreen, 10 μM ATP; conditions: c-kit biochemical inhibitory activity; read-out: Biochemical activity (IC50 μM) Kit
T1 construct: The c-kit (or kinase domain thereof) is an active kinase in AlphaScreen; poly-Histidine tag (in-house protein only) (cleaved yes); host or cells: E. coli BL21(DE3)RIL, co-expressed with PTP1B
Procedure, shortened: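 His-tagged c-Kit expressed in E. coli with co-expressed PTP1B (dephosphorylated), tag removed; 0.1 ng per reaction with biotinylated-peptide substrate in 50 mM HEPES pH 7.2, 5 mM MgCl2, 5 mM MnCl2, 5% DMSO, 10 μM ATP, 1 h at room temperature. Phosphorylation detected by AlphaScreen (streptavidin donor, PY20 acceptor beads); IC50 from 8-point 1:3 dilution series.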

c-kit mutant D816V = target: T2, c-kit mutant D816V (Homo sapiens, UniProt P10721, D816V/DEL694-753); test: c-Kit mutant D816V biochemical assay, AlphaScreen; conditions: c-kit D816V biochemical inhibitory activity; read-out: Biochemical activity (IC50 μM) Kit D816V
T2 construct: residues 551-934, kinase insertion domain residues 694-753 deleted; 6x-histidine (N); made in house; host or cells: E. coli Arctic Express (DE3) RIL (Stratagene)
Procedure, shortened: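 Eight-point, threefold compound series incubated 30 min at room temperature with E. coli-produced D816V kinase, 10 μM ATP, Mg2+/Mn2+ HEPES buffer pH 7.2 and 5% DMSO. After EDTA stop, streptavidin and anti-phosphotyrosine (PY20) AlphaScreen beads gave the read-out, and IC50 was fitted from the concentration–signal curve.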

T1 sequence (P10721 26-976): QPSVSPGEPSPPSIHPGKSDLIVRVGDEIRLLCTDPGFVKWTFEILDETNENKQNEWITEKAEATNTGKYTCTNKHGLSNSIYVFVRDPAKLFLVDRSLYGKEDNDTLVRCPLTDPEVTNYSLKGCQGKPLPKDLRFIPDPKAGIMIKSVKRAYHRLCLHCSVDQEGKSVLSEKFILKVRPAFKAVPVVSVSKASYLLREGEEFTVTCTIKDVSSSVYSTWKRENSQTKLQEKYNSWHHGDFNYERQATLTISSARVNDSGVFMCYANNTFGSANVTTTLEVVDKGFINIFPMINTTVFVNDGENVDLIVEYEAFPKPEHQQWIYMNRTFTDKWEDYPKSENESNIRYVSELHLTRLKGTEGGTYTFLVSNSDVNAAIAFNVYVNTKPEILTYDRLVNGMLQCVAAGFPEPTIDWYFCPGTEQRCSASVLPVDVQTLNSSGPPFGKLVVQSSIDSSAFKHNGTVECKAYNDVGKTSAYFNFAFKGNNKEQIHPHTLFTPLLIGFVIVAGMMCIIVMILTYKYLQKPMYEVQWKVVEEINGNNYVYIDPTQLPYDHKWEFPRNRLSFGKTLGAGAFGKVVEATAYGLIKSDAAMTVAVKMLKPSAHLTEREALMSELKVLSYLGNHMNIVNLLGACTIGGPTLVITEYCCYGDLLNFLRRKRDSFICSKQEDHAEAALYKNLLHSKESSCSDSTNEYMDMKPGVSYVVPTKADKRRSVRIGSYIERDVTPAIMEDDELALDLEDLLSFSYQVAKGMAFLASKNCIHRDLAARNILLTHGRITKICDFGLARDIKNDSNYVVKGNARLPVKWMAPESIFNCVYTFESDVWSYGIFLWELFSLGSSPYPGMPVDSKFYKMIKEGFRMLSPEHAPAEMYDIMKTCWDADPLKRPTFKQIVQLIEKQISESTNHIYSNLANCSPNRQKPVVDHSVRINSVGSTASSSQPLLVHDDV
T2 sequence (P10721 with tags, fused parts or gaps DEL694-753/D816V): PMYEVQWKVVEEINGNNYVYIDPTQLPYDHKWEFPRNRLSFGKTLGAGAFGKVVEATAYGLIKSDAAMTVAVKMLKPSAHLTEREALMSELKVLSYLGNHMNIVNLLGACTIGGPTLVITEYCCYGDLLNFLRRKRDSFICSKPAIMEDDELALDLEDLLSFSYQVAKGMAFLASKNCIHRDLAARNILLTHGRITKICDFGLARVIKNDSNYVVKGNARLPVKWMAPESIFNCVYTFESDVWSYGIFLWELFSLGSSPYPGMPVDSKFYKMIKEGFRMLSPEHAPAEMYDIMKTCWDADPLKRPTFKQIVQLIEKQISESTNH

Structure (SMILES)	IC50 (c-kit kinase) [µM]	IC50 (c-kit mutant D816V) [µM]
Cc1ccc(S(=O)(=O)Nc2ccc(-c3ncnc4cc(C5=CCNCC5)sc34)cc2)cc1 [P-0611, 4-methyl-N-[4-[6-(1,2,3,6-tetrahydropyridin-4-yl)thieno[3,2-d]pyrimidin-4-yl]phenyl]benzenesulfonamide]	0.0001 to 1	0.0001 to 1
Cc1nn(C)cc1-c1cc2ncnc(C3=CCN(C(=O)Nc4ccc(Cl)cc4)CC3)c2s1 [P-0612, N-(4-chlorophenyl)-4-[6-(1,3-dimethylpyrazol-4-yl)thieno[3,2-d]pyrimidin-4-yl]-3,6-dihydro-2H-pyridine-1-carboxamide]	0.0001 to 1	0.0001 to 1
Cc1nn(C)cc1-c1cc2ncnc(C3=CCN(C(=O)NCc4ccc(F)cc4)CC3)c2s1 [P-0613, 4-[6-(1,3-dimethylpyrazol-4-yl)thieno[3,2-d]pyrimidin-4-yl]-N-[(4-fluorophenyl)methyl]-3,6-dihydro-2H-pyridine-1-carboxamide]	1 to 10	0.0001 to 1
Cc1ccc(S(=O)(=O)Nc2ccc(-c3ncnc4cc(C5=CCN(C(=O)OC(C)(C)C)CC5)sc34)cc2)cc1 [P-0614, tert-butyl 4-[4-[4-(p-tolylsulfonylamino)phenyl]thieno[3,2-d]pyrimidin-6-yl]-3,6-dihydro-2H-pyridine-1-carboxylate]	1 to 10	0.0001 to 1
O=C(NCc1ccc(F)cc1)N1CCN(c2ncnc3cc(C4=CCNCC4)sc23)CC1 [P-0615, N-[(4-fluorophenyl)methyl]-4-[6-(1,2,3,6-tetrahydropyridin-4-yl)thieno[3,2-d]pyrimidin-4-yl]piperazine-1-carboxamide]	1 to 10	0.0001 to 1
CC(C)(C)OC(=O)N1CC=C(c2cc3ncnc(N4CCN(C(=O)NCc5ccc(F)cc5)CC4)c3s2)CC1 [P-0616, tert-butyl 4-[4-[4-[(4-fluorophenyl)methylcarbamoyl]piperazin-1-yl]thieno[3,2-d]pyrimidin-6-yl]-3,6-dihydro-2H-pyridine-1-carboxylate]	1 to 10	0.0001 to 1
Cn1cc(-c2cc3ncnc(C4=CC(C)(C)NC(C)(C)C4)c3s2)cn1 [P-0617, 6-(1-methylpyrazol-4-yl)-4-(2,2,6,6-tetramethyl-1,3-dihydropyridin-4-yl)thieno[3,2-d]pyrimidine]	10 to 200	10 to 200
Cc1nn(C)c(C)c1-c1cc2ncnc(N3CCN(C(=O)NCc4ccc(F)cc4)CC3)c2s1 [P-0618, N-[(4-fluorophenyl)methyl]-4-[6-(1,3,5-trimethylpyrazol-4-yl)thieno[3,2-d]pyrimidin-4-yl]piperazine-1-carboxamide]	1 to 10	1 to 10
Cc1nn(C)cc1-c1cc2ncnc(N3CCN(C(=O)NCc4ccc(F)cc4)CC3)c2s1 [P-0619, 4-[6-(1,3-dimethylpyrazol-4-yl)thieno[3,2-d]pyrimidin-4-yl]-N-[(4-fluorophenyl)methyl]piperazine-1-carboxamide]	1 to 10	0.0001 to 1
Cc1c(-c2cc3ncnc(N4CCN(C(=O)NCc5ccc(F)cc5)CC4)c3s2)cnn1C [P-0620, 4-[6-(1,5-dimethylpyrazol-4-yl)thieno[3,2-d]pyrimidin-4-yl]-N-[(4-fluorophenyl)methyl]piperazine-1-carboxamide]	1 to 10	0.0001 to 1
Cn1cc(-c2cc3ncnc(-c4ccc(N)nc4)c3s2)cn1 [P-0621, 5-[6-(1-methylpyrazol-4-yl)thieno[3,2-d]pyrimidin-4-yl]pyridin-2-amine]	1 to 10	1 to 10
Cc1cc2ncnc(-c3ccc(NS(C)(=O)=O)cc3)c2s1 [P-0622, N-[4-(6-methylthieno[3,2-d]pyrimidin-4-yl)phenyl]methanesulfonamide]	10 to 200	1 to 10
Cc1ccc(S(=O)(=O)Nc2ccc(-c3ncnc4cc(C)sc34)cc2)cc1 [P-0623, 4-methyl-N-[4-(6-methylthieno[3,2-d]pyrimidin-4-yl)phenyl]benzenesulfonamide]	1 to 10	0.0001 to 1
O=C(NCc1ccc(F)cc1)N1CCN(c2ncnc3cc(-c4cnn(CCN5CCOCC5)c4)sc23)CC1 [P-0624, N-[(4-fluorophenyl)methyl]-4-[6-[1-(2-morpholinoethyl)pyrazol-4-yl]thieno[3,2-d]pyrimidin-4-yl]piperazine-1-carboxamide]	1 to 10	0.0001 to 1
Cn1cc(-c2cc3ncnc(N4CCN(C(=O)NCc5ccccc5)CC4)c3s2)cn1 [P-0626, N-benzyl-4-[6-(1-methylpyrazol-4-yl)thieno[3,2-d]pyrimidin-4-yl]piperazine-1-carboxamide]	10 to 200	1 to 10
O=C(NCc1ccc(F)cc1)N1CCN(c2ncnc3ccsc23)CC1 [P-0638, N-[(4-fluorophenyl)methyl]-4-thieno[3,2-d]pyrimidin-4-yl-piperazine-1-carboxamide]	10 to 200	10 to 200
Cc1cc2c(N3CCN(C(=O)N[C@@H](C)c4cccc(Cl)c4)C(C)(C)C3)ncnc2[nH]1 [P-0641, N-[(1S)-1-(3-chlorophenyl)ethyl]-2,2-dimethyl-4-(6-methyl-7H-pyrrolo[2,3-d]pyrimidin-4-yl)piperazine-1-carboxamide]	10 to 200	0.0001 to 1
C[C@H](NC(=O)N1CCN(c2ncnc3[nH]c(-c4ccc(F)cc4)cc23)CC1(C)C)c1ccc(F)cc1 [P-0642, N-[(1S)-1-(4-fluorophenyl)ethyl]-4-[6-(4-fluorophenyl)-7H-pyrrolo[2,3-d]pyrimidin-4-yl]-2,2-dimethyl-piperazine-1-carboxamide]	1 to 10	0.0001 to 1
COc1cc(-c2cc3c(N4CCN(C(=O)N[C@@H](C)c5ccc(F)cc5)C(C)(C)C4)ncnc3[nH]2)ccn1 [P-0643]	1 to 10	0.0001 to 1
Cc1cc2c(N3CCN(C(=O)N[C@@H](C)c4ccc(F)cc4)C(C)(C)C3)ncnc2[nH]1 [P-0644, N-[(1S)-1-(4-fluorophenyl)ethyl]-2,2-dimethyl-4-(6-methyl-7H-pyrrolo[2,3-d]pyrimidin-4-yl)piperazine-1-carboxamide]	10 to 200	1 to 10
Cc1cc2c(N3CCN(C(=O)N[C@@H](C)c4cccc(OC(F)F)c4)C(C)(C)C3)ncnc2[nH]1 [P-0645, N-[(1S)-1-[3-(difluoromethoxy)phenyl]ethyl]-2,2-dimethyl-4-(6-methyl-7H-pyrrolo[2,3-d]pyrimidin-4-yl)piperazine-1-carboxamide]	10 to 200	1 to 10
Cc1cc2c(N3CCN(C(=O)N[C@@H](C)c4ccc(F)cc4)[C@H](C)C3)ncnc2[nH]1 [P-0646, (2R)-N-[(1S)-1-(4-fluorophenyl)ethyl]-2-methyl-4-(6-methyl-7H-pyrrolo[2,3-d]pyrimidin-4-yl)piperazine-1-carboxamide]	10 to 200	1 to 10
Cc1cc2c(N3CCN(C(=O)N[C@@H](C)c4cccc(Cl)c4)[C@H](C)C3)ncnc2[nH]1 [P-0647, (2R)-N-[(1S)-1-(3-chlorophenyl)ethyl]-2-methyl-4-(6-methyl-7H-pyrrolo[2,3-d]pyrimidin-4-yl)piperazine-1-carboxamide]	1 to 10	0.0001 to 1
Cc1cc2c(N3CCN(C(=O)N[C@@H](C)c4cccc(OC(F)F)c4)[C@H](C)C3)ncnc2[nH]1 [P-0648, (2R)-N-[(1S)-1-[3-(difluoromethoxy)phenyl]ethyl]-2-methyl-4-(6-methyl-7H-pyrrolo[2,3-d]pyrimidin-4-yl)piperazine-1-carboxamide]	10 to 200	0.0001 to 1
COc1cc([C@H](C)NC(=O)N2CCN(c3ncnc4[nH]c(-c5ccc(F)cc5)cc34)C[C@H]2C)ccc1Cl [P-0649, (2R)-N-[(1S)-1-(4-chloro-3-methoxy-phenyl)ethyl]-4-[6-(4-fluorophenyl)-7H-pyrrolo[2,3-d]pyrimidin-4-yl]-2-methyl-piperazine-1-carboxamide]	1 to 10	0.0001 to 1
COc1cc(-c2cc3c(N4CCN(C(=O)N[C@@H](C)c5cccc(Cl)c5)C(C)(C)C4)ncnc3[nH]2)ccn1 [P-0650, N-[(1S)-1-(3-chlorophenyl)ethyl]-4-[6-(2-methoxy-4-pyridyl)-7H-pyrrolo[2,3-d]pyrimidin-4-yl]-2,2-dimethyl-piperazine-1-carboxamide]	1 to 10	0.0001 to 1
COc1cc(-c2cc3c(C4=CCC(NS(=O)(=O)c5ccc(OC(F)(F)F)cc5)CC4)ncnc3[nH]2)ccn1 (stereo not shown) [P-0654, N-[4-[6-(2-methoxy-4-pyridyl)-7H-pyrrolo[2,3-d]pyrimidin-4-yl]cyclohex-3-en-1-yl]-4-(trifluoromethoxy)benzenesulfonamide]	10 to 200	0.0001 to 1
O=S(=O)(Nc1ccc(-c2ncnc3[nH]c(Cl)cc23)cc1)c1ccc(OC(F)F)cc1 [P-0655, N-[4-(6-chloro-7H-pyrrolo[2,3-d]pyrimidin-4-yl)phenyl]-4-(difluoromethoxy)benzenesulfonamide]	1 to 10	1 to 10
CC1(C)C=C(c2cc3c(N4CCC(NS(=O)(=O)c5ccc(OC(F)(F)F)cc5)CC4)ncnc3[nH]2)CC(C)(C)N1 [P-0662, N-[1-[6-(2,2,6,6-tetramethyl-1,3-dihydropyridin-4-yl)-7H-pyrrolo[2,3-d]pyrimidin-4-yl]-4-piperidyl]-4-(trifluoromethoxy)benzenesulfonamide]	1 to 10	1 to 10
